Data from patent publication US12486278B2, “MASP-2 inhibitors and methods of use” (Omeros Corporation, priority 2019, dated 2025).
Structures can show the parent of a compound that is named as a salt.

biological target: T1, MASP-2 (CCP1-CCP2-SP) (Homo sapiens, UniProt O00187); assay: Enzymatic Assay for MASP-2 (fluorogenic substrate); assay type: biochemical; conditions: fluorogenic substrate based on C2 cleavage site; room temperature, 20 min; 20 mM HEPES pH 7.4, 140 mM NaCl, 0.1% Tween 20
T1 construct: 15 μL of Enzyme MASP-2 (CCP1-CCP2-SP) in Assay Buffer
Outline: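 Fluorogenic substrate built on the C2 cleavage site, in 20 mM HEPES pH 7.4, 140 mM NaCl, 0.1% Tween 20, run at room temperature for 20 min before an acetic acid stop. Fluorescence normalised to DMSO-only and no-enzyme controls; IC50 taken as equivalent to Ki, with tight- or slow-binding inhibitors treated separately.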

T1 sequence (O00187 445-686 limits assumed): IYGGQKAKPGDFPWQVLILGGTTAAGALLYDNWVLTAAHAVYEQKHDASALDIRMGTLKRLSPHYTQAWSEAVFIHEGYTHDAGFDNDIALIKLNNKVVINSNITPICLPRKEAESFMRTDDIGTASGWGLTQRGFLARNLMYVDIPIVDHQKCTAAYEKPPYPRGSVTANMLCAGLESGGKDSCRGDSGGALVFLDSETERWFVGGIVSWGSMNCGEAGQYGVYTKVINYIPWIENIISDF
T1 sequence (O00187 298-444 partner limits assumed): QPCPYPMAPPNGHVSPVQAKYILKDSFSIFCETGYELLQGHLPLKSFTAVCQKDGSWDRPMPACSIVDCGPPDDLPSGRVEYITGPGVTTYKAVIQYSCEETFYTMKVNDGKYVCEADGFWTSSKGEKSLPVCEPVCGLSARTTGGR

Row | SMILES | Ki [nM]
1 | [2H]C([2H])([2H])n1cc(Cl)c2cc(CNC(=O)[C@H](C)NC(=O)[C@H]3C[C@H](Cc4ccccc4)CN3)cnc21 [Compound I-45, (2R,4S)-4-Benzyl-N—((S)-1-(((3-Chloro-1-(Methyl-D3)-1H-Pyrrolo[2,3-B]Pyridin-5-Yl)Methyl)Amino)-1-Oxopropan-2-Yl)Pyrrolidine-2-Carboxamide Hydrochloride] | < 500
2 | C[C@H](NC(=O)[C@H]1C[C@H](Cc2ccccc2)CN1)C(=O)NCc1ccc2ncc(Cl)n2c1 [Compound I-60, (2R,4S)-4-Benzyl-N—((S)-1-(((3-Chloroimidazo[1,2-A]Pyridin-6-Yl)Methyl)Amino)-1-Oxopropan-2-Yl)Pyrrolidine-2-Carboxamide Trifluoroacetate] | > 10000
3 | C[C@H](NC(=O)[C@H]1C[C@@H](c2cccc(-c3ccccc3)c2)CCN1)C(=O)NCc1ccc(C(=N)N)cc1 [Compound I-68, (2R,4S)-4-([1,1′-Biphenyl]-3-Yl)-N—((S)-1-((4-Carbamimidoylbenzyl)Amino)-1-Oxopropan-2-Yl)Piperidine-2-Carboxamide Di-Trifluoroacetate] | < 500
4 | Cc1nc(N)ccc1CNC(=O)[C@H](C)NC(=O)[C@H]1C[C@H](Cc2cccc(-c3ccc(F)cc3)c2)CN1 [Compound I-81, (2R,4S)—N—((S)-1-(((6-Amino-2-Methylpyridin-3-Yl)Methyl)Amino)-1-Oxopropan-2-Yl)-4-((4′-Fluoro-[1,1′-Biphenyl]-3-Yl)Methyl)Pyrrolidine-2-Carboxamide Di-Trifluoroacetate] | < 500
5 | Cc1nc(N)ccc1CNC(=O)[C@H](C)NC(=O)[C@H]1C[C@H](Cc2ccc3c(C)cccc3c2)CN1 [Compound I-85, (2R,4S)—N—((S)-1-(((6-Amino-2-Methylpyridin-3-Yl)Methyl)Amino)-1-Oxopropan-2-Yl)-4-((5-Methylnaphthalen-2-Yl)Methyl)Pyrrolidine-2-Carboxamide Dihydrochloride] | < 500
6 | O=C(NCc1cc(Cl)ccc1-n1cnnn1)[C@@H]1CCN1C(=O)[C@H]1C[C@@H](c2ccc(-c3ccccc3)cc2)CCN1 [Compound I-103, (S)-1-((2R,4S)-4-([1,1′-Biphenyl]-4-yl)piperidine-2-carbonyl)-N-(5-chloro-2-(1H-tetrazol-1-yl)benzyl)azetidine-2-carboxamide trifluoroacetate] | < 500
7 | Cc1nc(N)ccc1CNC(=O)[C@H](C)NC(=O)[C@H]1C[C@H](Cc2ccc(C(F)(F)F)s2)CN1 [Compound I-89, (2R,4R)—N—((S)-1-(((6-Amino-2-Methylpyridin-3-Yl)Methyl)Amino)-1-Oxopropan-2-Yl)-4-((5-(Trifluoromethyl)Thiophen-2-Yl)Methyl)Pyrrolidine-2-Carboxamide Dihydrochloride] | < 500
8 | CCN1C[C@@H](Cc2ccc(F)c(Cl)c2)C[C@@H]1C(=O)N[C@@H](C)C(=O)NCc1cnc2[nH]cc(Cl)c2c1 [Compound I-27, (2R,4S)—N—((S)-1-(((3-Chloro-1H-Pyrrolo[2,3-B]Pyridin-5-Yl)Methyl)Amino)-1-Oxopropan-2-Yl)-4-(3-Chloro-4-Fluorobenzyl)-1-Ethylpyrrolidine-2-Carboxamide] | < 500
9 | C[C@H](NC(=O)[C@H]1C[C@@H](c2ccccc2)CCN1CCC(=O)O)C(=O)NCc1cc(Cl)ccc1-n1cnnn1 [Compound I-29, 3-((2R,4S)-2-(((S)-1-((5-Chloro-2-(1H-Tetrazol-1-Yl)Benzyl)Amino)-1-Oxopropan-2-Yl)Carbamoyl)-4-Phenylpiperidin-1-Yl)Propanoic Acid Trifluoroacetate] | 2500 to 10000
10 | C[C@H](NC(=O)[C@H]1C[C@@H](c2ccc(-c3ccccc3)cc2)CCN1)C(=O)NCc1cc2cnccc2[nH]1 [Compound I-74, (2R,4S)—N—((S)-1-(((1H-Pyrrolo[3,2-C]Pyridin-2-Yl)Methyl)Amino)-1-Oxopropan-2-Yl)-4-([1,1′-Biphenyl]-4-Yl)Piperidine-2-Carboxamide Di-Trifluoroacetate] | < 500
11 | CC(NC(=O)[C@H]1C[C@@H](c2ccccc2)CCN1CC(=O)O)C(=O)NCc1cc2cnccc2[nH]1 (stereo in doubt) [Compound I-105, 2-((2R,4S)-2-(((S)-1-(((1H-pyrrolo[3,2-c]pyridin-2-yl)methyl)amino)-1-oxopropan-2-yl)carbamoyl)-4-phenylpiperidin-1-yl)acetic acid di-trifluoroacetate] | < 500
12 | C[C@H](NC(=O)c1cc(Cc2ccc(-c3ccccc3)cc2)c[nH]1)C(=O)NCc1ccc(C(=N)N)cc1 [Compound I-100, (S)-4-([1,1′-Biphenyl]-4-ylmethyl)-N-(1-((4-carbamimidoylbenzyl)amino)-1-oxopropan-2-yl)-1H-pyrrole-2-carboxamide trifluoroacetate] | < 500
13 | Cc1nc(N)ccc1CNC(=O)[C@H](C)NC(=O)[C@H]1C[C@H](Cc2ccc(C(=O)O)cc2)CN1 [Compound I-51, 4-(((3S,5R)-5-(((S)-1-(((6-Amino-2-Methylpyridin-3-Yl)Methyl)Amino)-1-Oxopropan-2-Yl)Carbamoyl)Pyrrolidin-3-Yl)Methyl)Benzoic Acid Di-Trifluoroacetate] | < 500
14 | Cc1nc(N)ccc1CNC(=O)[C@H](C)NC(=O)[C@H]1C[C@@H](c2ccccc2)CCN1CCNS(C)(=O)=O [Compound I-41, (2R,4S)—N—((S)-1-(((6-Amino-2-Methylpyridin-3-Yl)Methyl)Amino)-1-Oxopropan-2-Yl)-1-(2-(Methylsulfonamido)Ethyl)-4-Phenylpiperidine-2-Carboxamide Di-Trifluoroacetate] | 2500 to 10000
15 | C[C@H](NC(=O)[C@H]1C[C@H](C2(c3ccccc3)CC2)CN1)C(=O)NCc1cc2cnccc2[nH]1 [Compound I-8, (2R,4R)—N—((S)-1-(((1H-Pyrrolo[3,2-C]Pyridin-2-Yl)Methyl)Amino)-1-Oxopropan-2-Yl)-4-(1-Phenylcyclopropyl)Pyrrolidine-2-Carboxamide Di-Trifluoroacetate] | < 500
16 | C[C@H](NC(=O)[C@H]1C[C@H](Cc2ccc(Cl)s2)CN1)C(=O)NCc1cnc2[nH]cc(Cl)c2c1 [Compound I-83, (2R,4R)—N—((S)-1-(((3-Chloro-1H-Pyrrolo[2,3-B]Pyridin-5-Yl)Methyl)Amino)-1-Oxopropan-2-Yl)-4-((5-Chlorothiophen-2-Yl)Methyl)Pyrrolidine-2-Carboxamide Dihydrochloride] | < 500
17 | CCOC(=O)CCN1CC[C@H](c2ccccc2)C[C@@H]1C(=O)N[C@@H](C)C(=O)NCc1cc(Cl)ccc1-n1cnnn1 [Compound I-28, Ethyl 3-((2R,4S)-2-(((S)-1-((5-Chloro-2-(1H-Tetrazol-1-Yl)Benzyl)Amino)-1-Oxopropan-2-Yl)Carbamoyl)-4-Phenylpiperidin-1-Yl)Propanoate] | 2500 to 10000
18 | COC(=O)c1ccc(C[C@@H]2CN[C@@H](C(=O)N[C@@H](C)C(=O)NCc3ccc(N)nc3C)C2)cc1 [Compound I-50, Methyl 4-(((3S,5R)-5-(((S)-1-(((6-Amino-2-Methylpyridin-3-Yl)Methyl)Amino)-1-Oxopropan-2-Yl)Carbamoyl)Pyrrolidin-3-Yl)Methyl)Benzoate Dihydrochloride] | < 500
19 | C[C@H](NC(=O)[C@H]1C[C@H](c2ccccc2)CN1)C(=O)NCc1cc2ccncc2[nH]1 [Compound I-3, (2R,4R)—N—((S)-1-(((1H-pyrrolo[2,3-c]pyridin-2-yl)methyl)amino)-1-oxopropan-2-yl)-4-phenylpyrrolidine-2-carboxamide di-trifluoroacetate] | 2500 to 10000
20 | C[C@H](NC(=O)[C@H]1C[C@H](Cc2cccc(C(=O)O)c2)CN1)C(=O)NCc1ccc(C(=N)N)cc1 [Compound I-55, 3-(((3S,5R)-5-(((S)-1-((4-Carbamimidoylbenzyl)Amino)-1-Oxopropan-2-Yl)Carbamoyl)Pyrrolidin-3-Yl)Methyl)Benzoic Acid Di-Trifluoroacetate] | < 500
21 | C[C@H](NC(=O)[C@H]1C[C@@H](c2ccc(N3CCOCC3)cc2)CCN1)C(=O)NCc1ccc(C(=N)N)cc1 [Compound I-76, (2R,4S)—N—((S)-1-((4-Carbamimidoylbenzyl)Amino)-1-Oxopropan-2-Yl)-4-(4-Morpholinophenyl)Piperidine-2-Carboxamide Dihydrochloride] | < 500
22 | Cc1nc(N)ccc1CNC(=O)[C@H](C)NC(=O)[C@H]1C[C@H](Cc2cc(Cl)c(Cl)s2)CN1 [Compound I-18, (2R,4R)—N—((S)-1-(((6-Amino-2-Methylpyridin-3-Yl)Methyl)Amino)-1-Oxopropan-2-Yl)-4-((4,5-Dichlorothiophen-2-Yl)Methyl)Pyrrolidine-2-Carboxamide Di-Trifluoroacetate] | < 500
23 | C[C@H](NC(=O)[C@H]1C[C@@H](c2cc3ccccc3s2)CCN1)C(=O)NCc1ccc(C(=N)N)cc1 [Compound I-71, (2R,4S)-4-(Benzo[B]Thiophen-2-Yl)-N—((S)-1-((4-Carbamimidoylbenzyl)Amino)-1-Oxopropan-2-Yl)Piperidine-2-Carboxamide Di-Trifluoroacetate] | < 500
24 | C[C@H](NC(=O)[C@H]1C[C@@H](c2ccc(-c3cccnc3)cc2)CCN1)C(=O)NCc1ccc(C(=N)N)cc1 [Compound I-72, (2R,4S)—N—((S)-1-((4-Carbamimidoylbenzyl)Amino)-1-Oxopropan-2-Yl)-4-(4-(Pyridin-3-Yl)Phenyl)Piperidine-2-Carboxamide Di-Trifluoroacetate] | < 500
25 | Cc1nc(N)ccc1CNC(=O)[C@@H]1COCCN1C(=O)[C@H]1C[C@H](Cc2ccccc2)CN1 [Compound I-12, (S)—N-((6-Amino-2-Methylpyridin-3-Yl)Methyl)-4-((2R,4S)-4-Benzylpyrrolidine-2-Carbonyl)Morpholine-3-Carboxamide Di-Trifluoroacetate] | 500 to 2500
26 | Cc1nc(N)ccc1CNC(=O)[C@H](C)NC(=O)[C@H]1C[C@H](Cc2cccc(C(=O)NCCCCl)c2)CN1 [Compound I-49, (2R,4S)—N—((S)-1-(((6-Amino-2-Methylpyridin-3-Yl)Methyl)Amino)-1-Oxopropan-2-Yl)-4-(3-((3-Chloropropyl)Carbamoyl)Benzyl)Pyrrolidine-2-Carboxamide Di-Trifluoroacetate] | < 500
